For 28 compounds, IC50 results are on record in US11325899B2, “Benzofurane and benzothiophene derivatives as PGE2 receptor modulators” (IDORSIA PHARMACEUTICALS LTD, priority 2017, dated 2022).

One experiment concerns the target T1, EP4 receptor (Homo sapiens, UniProt P35408).
T1 construct: BT549 breast cancer cells, express high endogenous EP4 levels and very low EP2 levels; host or cells: BT549 breast cancer cells
The experiment can be described thus: hEP4 cAMP assay (BT549 breast cancer cells, HTRF cAMP, PGE2 stimulation). Particulars: antagonistic activity, PGE2 6 nM (EC80). Type of experiment: cell-based. An outline of the steps:
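BT549 cells, with endogenous EP4 and very low EP2, were preincubated 45 min at room temperature with compound in HBSS/HEPES/BSA buffer with 2 mM IBMX. They were then stimulated 30 min with 6 nM PGE2 (EC80). cAMP was measured by HTRF competitive immunoassay against a calibrator; IC50 from duplicate dose-response as % of DMSO control.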

The target of a further experiment is T2, EP2 receptor (Homo sapiens, UniProt P43116).
T2 construct: SF295 glioblastoma cells express high endogenous EP2 and no EP4; host or cells: SF295 glioblastoma cells
T2 sequence (P43116 whole entry): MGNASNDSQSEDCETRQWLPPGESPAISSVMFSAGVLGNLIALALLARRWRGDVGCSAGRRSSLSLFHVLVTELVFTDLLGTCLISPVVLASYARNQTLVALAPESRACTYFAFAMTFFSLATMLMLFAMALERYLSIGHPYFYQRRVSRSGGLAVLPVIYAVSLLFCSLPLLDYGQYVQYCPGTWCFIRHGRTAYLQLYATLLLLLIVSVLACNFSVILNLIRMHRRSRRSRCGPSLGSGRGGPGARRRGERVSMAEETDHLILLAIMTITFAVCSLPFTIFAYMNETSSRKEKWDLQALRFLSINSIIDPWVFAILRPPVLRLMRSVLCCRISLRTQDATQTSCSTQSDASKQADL
The experiment can be described thus: hEP2 cAMP assay (SF295 glioblastoma cells, HTRF cAMP, PGE2 stimulation). Particulars: antagonistic activity. Type of experiment: cell-based. In outline: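 HTRF cAMP readout gave % cAMP relative to DMSO, fitted to IC50 with duplicate points. Compounds were preincubated 45 min at room temperature with EP2-expressing, EP4-negative SF295 cells in IBMX (2 mM)-containing buffer before a 30 min challenge with PGE2 at 75 nM final, its EC80.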

Molecules are shown by their SMILES. pIC50: −log10 of the molar value.

T1 sequence (P35408 whole entry): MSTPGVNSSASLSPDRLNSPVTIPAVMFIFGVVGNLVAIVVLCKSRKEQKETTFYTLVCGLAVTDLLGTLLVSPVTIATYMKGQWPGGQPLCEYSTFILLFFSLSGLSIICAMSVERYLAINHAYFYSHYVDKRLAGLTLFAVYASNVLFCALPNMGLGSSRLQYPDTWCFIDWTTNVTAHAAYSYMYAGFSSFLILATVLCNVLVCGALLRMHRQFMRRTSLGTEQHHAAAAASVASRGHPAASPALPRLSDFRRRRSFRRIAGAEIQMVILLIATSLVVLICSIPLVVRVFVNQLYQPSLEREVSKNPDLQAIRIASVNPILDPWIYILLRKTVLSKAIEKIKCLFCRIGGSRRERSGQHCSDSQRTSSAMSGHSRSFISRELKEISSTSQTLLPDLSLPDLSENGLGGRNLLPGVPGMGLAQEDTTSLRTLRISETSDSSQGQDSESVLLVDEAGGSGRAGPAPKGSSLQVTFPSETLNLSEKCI

As to `COc1cc(-c2cc(NCCc3c(C)sc4c(OC)ccc(Cl)c34)ncn2)ccc1C(=O)O` [Example 40, 4-{6-[2-(4-Chloro-7-methoxy-2-methyl-benzo[b]thiophen-3-yl)-ethylamino]-pyrimidin-4-yl}-2-methoxy-benzoic acid], the pIC50 against EP4 receptor is 6.36; at EP2 receptor it was 7.03.

On to `CCSc1cc(-c2cc(NCCc3c(C)sc4c(C)cccc34)ncn2)ccc1C(=O)O` [Example 42, 4-{6-[2-(2,7-Dimethyl-benzo[b]thiophen-3-yl)-ethylamino]-pyrimidin-4-yl}-2-ethylsulfanyl-benzoic acid], for which the pIC50 at EP4 receptor was 6.65; against EP2 receptor, 7.85.

As for `CCSc1cc(-c2cc(NCCc3c(C)sc4ccccc34)ncn2)ccc1C(=O)O` [Example 43, 2-Ethylsulfanyl-4-{6-[2-(2-methyl-benzo[b]thiophen-3-yl)-ethylamino]-pyrimidin-4-yl}-benzoic acid], the pIC50 against EP4 receptor was 6.30; against EP2 receptor it was 8.40.

Consider `CCSc1cc(-c2cc(NCCc3c(C)oc4ccccc34)ncn2)ccc1C(=O)O` [Example 44, 2-Ethylsulfanyl-4-{6-[2-(2-methyl-benzofuran-3-yl)-ethylamino]-pyrimidin-4-yl}-benzoic acid], for which the pIC50 is 5.86 against EP4 receptor and 8.40 against EP2 receptor.

On to `CCCc1cc(-c2cc(NCCc3c(C)sc4c(C)cc(F)cc34)ncn2)ccc1C(=O)O` [Example 45, 4-{6-[2-(5-Fluoro-2,7-dimethyl-benzo[b]thiophen-3-yl)-ethylamino]-pyrimidin-4-yl}-2-propyl-benzoic acid], for which the pIC50 is 6.83 against EP4 receptor and 7.32 against EP2 receptor.

Turning to `Cc1sc2c(C)cc(F)cc2c1CCNc1cc(-c2cc(C(F)(F)F)c(C(=O)O)s2)ncn1` [Example 46, 5-{6-[2-(5-Fluoro-2,7-dimethyl-benzo[b]thiophen-3-yl)-ethylamino]-pyrimidin-4-yl}-3-trifluoromethyl-thiophene-2-carboxylic acid], the pIC50 on EP4 receptor was 7.52; against EP2 receptor it was 7.51.

`CSc1cc(-c2cc(NCCc3c(C)sc4c(C)cccc34)ncn2)cc(F)c1C(=O)O` [Example 47, 4-{6-[2-(2,7-Dimethyl-benzo[b]thiophen-3-yl)-ethylamino]-pyrimidin-4-yl}-2-fluoro-6-methylsulfanyl-benzoic acid]: the pIC50 at EP4 receptor is 6.00; on EP2 receptor, 7.92.

In the case of `CSc1cc(-c2cc(NCCc3c(C)sc4c(C)cccc34)ncn2)cc(Cl)c1C(=O)O` [Example 50, 2-Chloro-4-{6-[2-(2,7-dimethyl-benzo[b]thiophen-3-yl)-ethylamino]-pyrimidin-4-yl}-6-methylsulfanyl-benzoic acid], the values for the pIC50 against EP4 receptor and against EP2 receptor were 6.22 and 7.89, respectively.

Take `CCOc1cc(-c2cc(NCCc3c(C)sc4c(C)cc(F)cc34)ncn2)sc1CC(=O)O` [Example 52, (3-Ethoxy-5-{6-[2-(5-fluoro-2,7-dimethyl-benzo[b]thiophen-3-yl)-ethylamino]-pyrimidin-4-yl}-thiophen-2-yl)-acetic acid]: the pIC50 was 6.64 against EP4 receptor and 7.02 against EP2 receptor.

Take `CCOc1cc(-c2cc(NCCc3c(C#N)sc4c(C)cc(F)cc34)ncn2)ccc1C(=O)O` [Example 53, 4-{6-[2-(2-Cyano-5-fluoro-7-methyl-benzo[b]thiophen-3-yl)-ethylamino]-pyrimidin-4-yl}-2-ethoxy-benzoic acid]: the pIC50 against EP4 receptor is 7.36; at EP2 receptor, 8.15.

On to `CCOc1cc(-c2cc(NCCc3c(C#N)sc4c(OC)cccc34)ncn2)ccc1C(=O)O` [Example 54, 4-{6-[2-(2-Cyano-7-methoxy-benzo[b]thiophen-3-yl)-ethylamino]-pyrimidin-4-yl}-2-ethoxy-benzoic acid], for which the values for the pIC50 on EP4 receptor and against EP2 receptor were 7.33 and 7.11, respectively.

For the compound `CCOc1cc(-c2cc(NCCc3c(C)sc4c(OC)ccc(F)c34)ncn2)ccc1C(=O)O` [Example 55, 2-Ethoxy-4-{6-[2-(4-fluoro-7-methoxy-2-methyl-benzo[b]thiophen-3-yl)-ethylamino]-pyrimidin-4-yl}-benzoic acid], the pIC50 against EP4 receptor is 6.86; at EP2 receptor, 7.40.

Consider `CCOc1cc(-c2cc(NCCc3c(C)sc4c(C)cc(F)cc34)ncn2)ccc1C(=O)O` [Example 56, 2-Ethoxy-4-{6-[2-(5-fluoro-2,7-dimethyl-benzo[b]thiophen-3-yl)-ethylamino]-pyrimidin-4-yl}-benzoic acid], for which the pIC50 against EP4 receptor was 6.73; against EP2 receptor, 7.72.

Consider `CCOc1cc(-c2cc(NCCc3c(C)sc4c(OC)ccc(Cl)c34)ncn2)ccc1C(=O)O` [Example 57, 4-{6-[2-(4-Chloro-7-methoxy-2-methyl-benzo[b]thiophen-3-yl)-ethylamino]-pyrimidin-4-yl}-2-ethoxy-benzoic acid], for which the pIC50 on EP4 receptor is 6.66; on EP2 receptor, 7.36.

In the case of `CCOc1cc(-c2cc(NCCc3c(Br)sc4c(C)cc(F)cc34)ncn2)ccc1C(=O)O` [Example 58, 4-{6-[2-(2-Bromo-5-fluoro-7-methyl-benzo[b]thiophen-3-yl)-ethylamino]-pyrimidin-4-yl}-2-ethoxy-benzoic acid], the results for the pIC50 against EP4 receptor and against EP2 receptor were 6.56 and 7.77, respectively.

Take `CCOc1cc(-c2cc(NCCc3c(Cl)sc4c(C)cc(F)cc34)ncn2)ccc1C(=O)O` [Example 59, 4-{6-[2-(2-Chloro-5-fluoro-7-methyl-benzo[b]thiophen-3-yl)-ethylamino]-pyrimidin-4-yl}-2-ethoxy-benzoic acid]: the pIC50 at EP4 receptor was 6.55; against EP2 receptor it was 7.92.

`CCOc1cc(-c2cc(NCCc3c(C)sc4c(C)cccc34)ncn2)ccc1C(=O)O` [Example 60, 4-{6-[2-(2,7-Dimethyl-benzo[b]thiophen-3-yl)-ethylamino]-pyrimidin-4-yl}-2-ethoxy-benzoic acid]: the pIC50 was 6.46 on EP4 receptor and 7.82 against EP2 receptor.

Take `CCOc1cc(-c2cc(NCCc3c(C)sc4c(C)ccc(F)c34)ncn2)ccc1C(=O)O` [Example 61, 2-Ethoxy-4-{6-[2-(4-fluoro-2,7-dimethyl-benzo[b]thiophen-3-yl)-ethylamino]-pyrimidin-4-yl}-benzoic acid]: the pIC50 at EP4 receptor was 6.45; against EP2 receptor, 7.22.

`CCOc1cc(-c2cc(NCCc3c(C)sc4c(C)c(F)ccc34)ncn2)ccc1C(=O)O` [Example 62, 2-Ethoxy-4-{6-[2-(6-fluoro-2,7-dimethyl-benzo[b]thiophen-3-yl)-ethylamino]-pyrimidin-4-yl}-benzoic acid]: the pIC50 at EP4 receptor is 6.41; against EP2 receptor, 7.85.

`CCOc1cc(-c2cc(NCCc3c(C)sc4c(Cl)ccc(Cl)c34)ncn2)ccc1C(=O)O` [Example 63, 4-{6-[2-(4,7-Dichloro-2-methyl-benzo[b]thiophen-3-yl)-ethylamino]-pyrimidin-4-yl}-2-ethoxy-benzoic acid]: the values for the pIC50 against EP4 receptor and at EP2 receptor were 6.35 and 7.19, respectively.

As for `CCOc1cc(-c2cc(NCCc3c(C)oc4c(C)cc(Cl)cc34)ncn2)ccc1C(=O)O` [Example 64, 4-{6-[2-(5-Chloro-2,7-dimethyl-benzofuran-3-yl)-ethylamino]-pyrimidin-4-yl}-2-ethoxy-benzoic acid], the pIC50 at EP4 receptor is 6.26; against EP2 receptor, 8.15.

As to `CCOc1cc(-c2cc(NCCc3c(C)sc4c(Cl)cc(F)cc34)ncn2)ccc1C(=O)O` [Example 65, 4-{6-[2-(7-Chloro-5-fluoro-2-methyl-benzo[b]thiophen-3-yl)-ethylamino]-pyrimidin-4-yl}-2-ethoxy-benzoic acid], the figures for the pIC50 on EP4 receptor and against EP2 receptor were 6.25 and 7.82, respectively.

Regarding `CCOc1cc(-c2cc(NCCc3c(C)sc4c(C)ccc(Cl)c34)ncn2)ccc1C(=O)O` [Example 66, 4-{6-[2-(4-Chloro-2,7-dimethyl-benzo[b]thiophen-3-yl)-ethylamino]-pyrimidin-4-yl}-2-ethoxy-benzoic acid], the figures for the pIC50 against EP4 receptor and against EP2 receptor were 6.22 and 7.00, respectively.

Take `CCOc1cc(-c2cc(NCCc3c(C)oc4c(OC)ccc(F)c34)ncn2)ccc1C(=O)O` [Example 67, 2-Ethoxy-4-{6-[2-(4-fluoro-7-methoxy-2-methyl-benzofuran-3-yl)-ethylamino]-pyrimidin-4-yl}-benzoic acid]: the pIC50 was 6.20 against EP4 receptor and 6.85 on EP2 receptor.

For the compound `CCOc1cc(-c2cc(NCCc3c(C)oc4c(Cl)cccc34)ncn2)ccc1C(=O)O` [Example 68, 4-{6-[2-(7-Chloro-2-methyl-benzofuran-3-yl)-ethylamino]-pyrimidin-4-yl}-2-ethoxy-benzoic acid], the pIC50 at EP4 receptor was 6.15; against EP2 receptor, 7.41.

As to `CCOc1cc(-c2cc(NCCc3c(C)oc4c(C)cc(F)cc34)ncn2)ccc1C(=O)O` [Example 69, 2-Ethoxy-4-{6-[2-(5-fluoro-2,7-dimethyl-benzofuran-3-yl)-ethylamino]-pyrimidin-4-yl}-benzoic acid], the pIC50 on EP4 receptor was 6.12; against EP2 receptor, 7.13.

In the case of `CCOc1cc(-c2cc(NCCc3c(C)oc4c(OC)cc(Cl)cc34)ncn2)ccc1C(=O)O` [Example 70, 4-{6-[2-(5-Chloro-7-methoxy-2-methyl-benzofuran-3-yl)-ethylamino]-pyrimidin-4-yl}-2-ethoxy-benzoic acid], the results for the pIC50 at EP4 receptor and against EP2 receptor were 6.01 and 7.10, respectively.

Take `CCOc1cc(-c2cc(NCCc3c(C)oc4c(Cl)cc(Cl)cc34)ncn2)ccc1C(=O)O` [Example 71, 4-{6-[2-(5,7-Dichloro-2-methyl-benzofuran-3-yl)-ethylamino]-pyrimidin-4-yl}-2-ethoxy-benzoic acid]: the pIC50 was 5.99 on EP4 receptor and 8.00 at EP2 receptor.
